How the values were obtained:
Assay type in all cases: biochemical
[1] = molecular target: human recombinant core 1 β1,3-Gal-transferase (C1GalT) (Homo sapiens, UniProt Q9NS00); assay: C1GalT glycosyltransferase assay; settings: for C1GalT activity (%): acceptor substrate 0.5 mM, 0.5 mM GalNAcα-Bn set to 100%
[2] = molecular target: T1, human recombinant core 3 β1,3-GlcNAc-transferase (C3GnT) (Homo sapiens, UniProt Q6ZMB0); assay: C3GnT glycosyltransferase assay; settings: acceptor substrate 0.5 mM; 0.5 mM GalNAcα-Bn set to 100%
T1 sequence (Q6ZMB0 32-384 limits assumed): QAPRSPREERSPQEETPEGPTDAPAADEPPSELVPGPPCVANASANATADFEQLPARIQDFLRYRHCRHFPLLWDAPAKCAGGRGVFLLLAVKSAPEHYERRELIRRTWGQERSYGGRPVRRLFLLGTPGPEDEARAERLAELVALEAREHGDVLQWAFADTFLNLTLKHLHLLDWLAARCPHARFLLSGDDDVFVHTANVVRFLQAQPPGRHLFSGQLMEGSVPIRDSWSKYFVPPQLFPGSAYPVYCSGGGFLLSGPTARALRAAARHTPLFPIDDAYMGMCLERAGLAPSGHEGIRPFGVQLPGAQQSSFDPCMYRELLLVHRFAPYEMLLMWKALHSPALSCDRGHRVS

[3] = molecular target: T2, human recombinant core 2 β1,6-GlcNAc-transferase (C2GnT1) (Homo sapiens, UniProt Q02742); assay: C2GnT1 glycosyltransferase assay; settings: for C2GnT1 activity (%): acceptor substrate 0.5 mM, 0.5 mM Galβ1–3GalNAcα-pnp set to 100%
T2 sequence (Q02742 33-428 limits assumed): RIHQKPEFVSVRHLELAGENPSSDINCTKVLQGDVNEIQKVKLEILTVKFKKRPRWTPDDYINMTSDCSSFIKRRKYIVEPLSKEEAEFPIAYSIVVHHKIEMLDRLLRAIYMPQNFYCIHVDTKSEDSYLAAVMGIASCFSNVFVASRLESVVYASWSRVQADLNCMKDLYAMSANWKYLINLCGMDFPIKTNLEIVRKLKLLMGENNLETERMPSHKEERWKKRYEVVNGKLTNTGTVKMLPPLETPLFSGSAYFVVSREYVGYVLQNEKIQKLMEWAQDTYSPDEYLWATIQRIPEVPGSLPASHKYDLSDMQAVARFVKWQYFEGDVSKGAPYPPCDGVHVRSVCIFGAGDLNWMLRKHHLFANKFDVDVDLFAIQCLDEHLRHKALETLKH

[4] = molecular target: T3, human recombinant core 2/4 β1,6-GlcNAc-transferase (C2GnT2) (Homo sapiens, UniProt O95395); settings: for C2GnT2 activity (%): acceptor substrate 0.5 mM, 0.5 mM Galβ1–3GalNAcα-pnp set to 100%
T3 sequence (O95395 27-438): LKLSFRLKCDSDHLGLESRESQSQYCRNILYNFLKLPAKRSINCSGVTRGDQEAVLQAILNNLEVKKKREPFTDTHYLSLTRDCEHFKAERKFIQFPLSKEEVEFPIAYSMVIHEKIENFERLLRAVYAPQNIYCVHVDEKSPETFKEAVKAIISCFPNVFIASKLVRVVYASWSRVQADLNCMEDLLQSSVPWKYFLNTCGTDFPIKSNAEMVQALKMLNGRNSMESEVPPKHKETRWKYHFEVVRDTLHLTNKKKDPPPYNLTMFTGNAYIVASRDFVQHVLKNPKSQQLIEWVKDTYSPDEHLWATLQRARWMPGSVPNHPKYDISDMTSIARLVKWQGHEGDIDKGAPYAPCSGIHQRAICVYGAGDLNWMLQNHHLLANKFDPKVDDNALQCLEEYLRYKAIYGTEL

human recombinant core 1 β1,3-Gal-transferase (C1GalT), sequence (Q9NS00 30-363 limits assumed): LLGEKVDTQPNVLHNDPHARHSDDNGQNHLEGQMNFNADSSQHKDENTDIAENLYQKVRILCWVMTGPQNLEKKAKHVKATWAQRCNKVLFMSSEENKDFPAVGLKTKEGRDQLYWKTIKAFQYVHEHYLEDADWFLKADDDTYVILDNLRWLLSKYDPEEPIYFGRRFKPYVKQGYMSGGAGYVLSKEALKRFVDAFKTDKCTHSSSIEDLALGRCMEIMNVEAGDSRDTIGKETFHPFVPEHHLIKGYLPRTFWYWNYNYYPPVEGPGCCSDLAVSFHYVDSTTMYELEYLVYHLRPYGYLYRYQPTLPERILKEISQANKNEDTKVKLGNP

Molecule: CC(=O)N[C@H]1[C@H](OCc2ccccc2)O[C@H](CO)[C@@H](O[C@@H]2O[C@H](CO)[C@H](O)[C@H](O)[C@H]2NC(C)=O)[C@@H]1O [GalNAcβ1–4GlcNAcβ-Bn]
- C1GalT activity (%) [1]: <1%
- C3GnT activity (%) [2]: <1%

Molecule: CC(=O)N[C@H]1[C@@H](OCc2ccccc2)O[C@H](C)[C@H](O)[C@@H]1O[C@@H]1O[C@H](CO)[C@H](O)[C@H](O)[C@H]1O [Galβ1–3(6-deoxy)GalNAcα-Bn]
- C2GnT1 activity (%) [3]: <1%
- C1GalT activity (%) [1]: <1%
- C3GnT activity (%) [2]: <1%
- C2GnT2 activity (%) [4]: <1%

Molecule: CC(=O)N[C@H]1[C@H](OC[C@H]2O[C@H](Oc3ccccc3[N+](=O)[O-])[C@H](NC(C)=O)[C@@H](O)[C@H]2O)O[C@H](CO)[C@@H](O[C@@H]2O[C@H](CO)[C@H](O)[C@H](O)[C@H]2O)[C@@H]1O [Galβ1–4GlcNAcβ1–6GalNAcα-onp]
- C1GalT activity (%) [1]: 38%
- C3GnT activity (%) [2]: <1%

Molecule: CC(=O)N[C@H]1[C@H](OC[C@H]2O[C@H](Oc3ccc4ccccc4c3)[C@H](O)[C@@H](O)[C@H]2O)O[C@H](CO)[C@@H](O[C@@H]2O[C@H](CO)[C@H](O)[C@H](O)[C@H]2O)[C@@H]1O [Galβ1–4GlcNAcβ1–6Galα-(2-naphthyl)]
- C1GalT activity (%) [1]: <1%
- C3GnT activity (%) [2]: <1%

Molecule: CC(=O)N[C@H]1[C@@H](OCc2ccccc2)O[C@H](CO[C@@H]2O[C@H](CO)[C@@H](O[C@@H]3O[C@H](CO)[C@H](O)[C@H](O)[C@H]3O)[C@H](O)[C@H]2O)[C@H](O)[C@@H]1O [Galβ1–4Glcβ1–6GalNAcα-Bn]
- C1GalT activity (%) [1]: 63%
- C3GnT activity (%) [2]: <1%

Molecule: CC(=O)N[C@H]1[C@@H](OCc2ccccc2)O[C@H](CO[C@@H]2O[C@H](CO)[C@H](O)[C@H](O)[C@H]2O)[C@H](O)[C@@H]1O [Galβ1–6GalNAcα-Bn]
- C1GalT activity (%) [1]: 30%
- C3GnT activity (%) [2]: <1%

Molecule: CC(=O)N[C@H]1[C@@H](OCc2ccccc2)O[C@H](CO[C@@H]2O[C@H](CO)[C@@H](O)[C@H](O)[C@H]2NC(C)=O)[C@H](O)[C@@H]1O [GlcNAcβ1–6-GalNAcα-Bn]
- C2GnT1 activity (%) [3]: <1%
- C1GalT activity (%) [1]: 74%
- C3GnT activity (%) [2]: <1%
- C2GnT2 activity (%) [4]: <1%

Molecule: [2H]C([2H])([2H])O[C@@H]1O[C@H](CO[C@@H]2O[C@H](CO)[C@@H](O)[C@H](O)[C@H]2NC(C)=O)[C@H](O)[C@H](O)[C@H]1O [GlcNAcβ1–6-Galβ-OCD3]
- C1GalT activity (%) [1]: <1%
- C3GnT activity (%) [2]: <1%

Molecule: [Cl][Mn][Cl] [Mn^2+, MnCl2]
- reduction of C2GnT1 activity ([3]; 12.5 mM in the assay): 61%
- C1GalT activity with cofactor/additive ([1]; 12.5 mM metal ion or EDTA, Mn2+ taken as 100%): 100%
- EC50 ([1]; read-out: MnCl2 concentration for half-maximal C1GalT activity): 250 µM
- reduction of C2GnT2 activity ([4]; 12.5 mM in the assay, core 1 or core 3 substrates): 83–85%

Molecule: A-(GalNAcα)T
- C3GnT activity (%) [2]: 15%

Molecule: AHGVT-(GalNAcα)SAPDTRPAPGSTAPPA
- C2GnT1 activity (%) [3]: <1%
- C1GalT activity (%) [1]: 39%
- C3GnT activity (%) [2]: 15%
- C2GnT2 activity (%) [4]: <1%

Molecule: Ac-GHA-(GalNAcα)TSLPVTG-NH2
- C1GalT activity (%) [1]: 564%
- C3GnT activity (%) [2]: 22%

Molecule: Ac-V-(GalNAcα)TP-NH2
- C1GalT activity (%) [1]: 71%
- C3GnT activity (%) [2]: 36%

Molecule: TE-(GlcNAcβ1–6GalNAcα)TTSHSTPG
- C2GnT1 activity (%) [3]: <1%
- C1GalT activity (%) [1]: <1%
- C2GnT2 activity (%) [4]: <1%

Molecule: TT-(GalNAcα)TVTPTPTG
- C1GalT activity (%) [1]: 99%
- C3GnT activity (%) [2]: 8%

Molecule: TTTV-(GalNAcα)TPTPTG
- C1GalT activity (%) [1]: 270%
- C3GnT activity (%) [2]: 10%

Molecule: TTTVTP-(GalNAcα)TPTG
- C1GalT activity (%) [1]: 259%
- C3GnT activity (%) [2]: 5%
